{"source": "patent US6518259B1", "about": "“Compositions for treating autoimmune disease” (The Regents of the University of Michigan, priority 1998, dated 2003)", "format_in_all_cases": "cell-based, human", "key": {"[1]": {"system": "caspases (CPP32, PARP cleavage)", "experiment": "Western blot of CPP32 and PARP cleavage after anti-Fas antibody stimulation, with or without caspase inhibitor", "conditions": "preincubated 1 hr with 40 μM, then 100 ng/ml anti-Fas antibody", "method": "In some examples below, Western blots were performed. For Western blot analysis, 5×10^6 cells were washed and suspended in 100 μl of lysis buffer [1% sodium dodecyl sulfate (SDS), 1 mM sodium vanadate, 10 mM Tris (pH 7.6)], and boiled for 5 min. After micro-centrifugation at 14,000 rpm, for 10 min, supernatants (cell lysates) were recovered. The protein concentration of the lysates was determined with bicinchoninic acid (BCA) protein assay reagent (Pierce). For CPP32 immunoblots, cell lysates (10-20 μg of protein per lane) were separated on 15% SDS-polyacrylamide gels under reducing conditions, transferred to polyvinylidene difluoride (PVDF) membranes (Millipore), and probed with mouse monoclonal anti-CPP32 (clone #19, IgG2a, from Signal Transduction Labs, Lexington, Ky.) followed by sheep F(ab′)2 fragment horseradish peroxidase-conjugated, anti-mouse Ig (Amersham). For PARP immunoblots, cell lysates (10 μg of protein per lane) were separated on 7.5% SDS-polyacrylamide gels, transferred to PVDF membrane, and probed with monoclonal mouse anti-human PARP antibody C2.10 (IgG1, Enzyme Systems Products Dublin, Calif.). Antibody binding was detected with an ECL detection system (Amersham).\nBriefly, cells were preincubated for 1 hr in the presence or absence of 40 μM of Z-VAD-fmk, and subsequently incubated with 100 ng/ml of the anti-Fas antibody […]. At different time points thereafter, cells were collected, lysed and a Western blot analysis performed with the relevant antibodies."}, "[2]": {"system": "EBV transformed B cell lines from RA patients", "experiment": "Anti-Fas antibody CH-11-induced apoptosis of EBV transformed target cells, TUNEL assay", "conditions": "prior incubation of target cells (2.5 μM DMS), 8 hr CH-11 100 ng/ml, serum-free RPMI 1640, FIG. 5B", "method": "In some of the examples below, the TUNEL assay was used. TdT-mediated dUTP-biotin nick end-labeling (TUNEL) assay was performed as described [see (Gorczyca, W, et al. Leukemia 7, 659-70 (1993)]. Briefly, cells were fixed in 1% buffered formaldehyde (pH 7.4) for 15 min on ice, washed in phosphate-buffered saline (PBS) and stored at 4° C. in 70% ethanol. Subsequently, cells were resuspended in 50 μl of a solution containing: 5 unites of terminal deoxynucleotidyl transferase (Boehringer Mannheim, Indianapolis, Ind.), 2.5 mM CoCl2,0.2 M potassium cacodylate, 25 mM Tris-HCl, 0.25 mg/ml bovine serum albumin, 0.5 nmoles biotin-16-dUTP (Boehringer Mannheim Biochemicals, Indianapolis, Ind.). […] Green (b-dUTP) and red (DNA) fluorescence of individual cells were measured with an EPICS Elite Flow Cytometer (Coulter, Hialeah. Fla., USA).\nSPP, a potent derivative of sphingosine, has been recently shown to activate a pertussis toxin-sensitive G protein and to inhibit Fas-mediated cell death, Therefore, the ability of SPP to inhibit apoptosis in RA lymphocytes was investigated Apoptosis induced by 8 hr stimulation with the anti-Fas antibody CH-11 (100 ng/ml) was determined in EBV transformed target cells in the presence FIG. 5B, dashed bars) or absence (FIG. 5B, open bars) of 2.5 μM DMS in serum-free RPMI 1640 medium supplemented with insulin and transferrin. […]"}, "[3]": {"system": "EBV transformed B cell targets from RA patients", "experiment": "Cytolysis of EBV transformed target cells by Vγ9/Vδ2 T cells, 4 hr 51Cr release assay", "method": "Fas-mediated cell death in-vivo is thought to be triggered, primarily, by cytotoxic T cells. […] However, susceptibility to cytolysis is markedly different between the two groups when determined using standard 4 hour ^51Cr release assays. FIG. 2C is a bar graph showing the susceptibility to cytolysis by Vγ9/Vδ2 T cell clones determined in EBV transformed lines from 23 normal controls, 18 patients with RA, 6 patients with pauciarticular-onset juvenile arthritis (“pJA”), and 3 patients with autoimmune thyroiditis. Lymphoblastoid target lines from all 23 normal controls tested were efficiently killed by Vγ9/Vδ2 clones, while none of the lines from 18 RA patients were susceptible. […]\nInhibition of Fas-mediated death signaling by SPP was also examined using γδ […]. Cytolysis of EBV transformed target cells by Vγ9/Vδ2 T cells was determined by 4 hr ^51Cr release assay (FIG. 5C) in the presence (●) or absence (∘) of 2.5 μM DMS. At the end of incubation, targets were washed and susceptibility to killing by γδ T cells was assessed.\nAdditionally, pre-incubating RA targets with pertussis toxin reversed their resistance to Fas-mediated and γδ T cell-mediated killing (FIGS. 5D and 5E). […] Cell death was determined using the commercial MTS kit (Promega, Madison, Wis.). […]"}, "[4]": {"system": "RA EBV transformed target cells", "experiment": "Anti-Fas antibody CH-11-induced apoptosis of RA EBV transformed target cells with MEK1 inhibitor", "conditions": "16 hr CH-11 200 ng/ml, FIG. 6", "method": "As noted above, it is not intended that the present invention be limited to any one inhibitor. In this example, resistance to Fas-mediated cell killing is shown to be reversed by preincubation of target cells with a MEK1 inhibitor. Apoptosis of RA EBV transformed target cells was induced by 16 hr stimulation with anti-Fas antibody CH-11 (200 ng/ml) in the presence (FIG. 6, black bars) or absence (FIG. 6, open bars) of 100 µM of the MEK1 inhibitor 2-(2′-amino3′-methoxyphenyl-oxanaphthalen-4-one) (PD098059)."}, "[5]": {"system": "EBV transformed B cell lines from RA patients", "experiment": "Anti-Fas antibody CH-11-mediated killing of EBV transformed B cell lines, MTS kit", "conditions": "preincubation 1 μg/ml for 1 hr, CH-11 100 ng/ml over a time course, FIG. 5D", "method": "In this example, the susceptibility of lymphocytes to cell death is examined. As noted above, it is believed that prevention of immune-mediated self injury requires prompt elimination of activated lymphocytes at the end of an immune response. […] Briefly, PHA T cell lymphoblasts from 6 normal controls and 6 RA patients were established by stimulating peripheral blood mononuclear cells with 0.5 μg/ml PHA for 3 days, followed by expansion in 20 U/ml of recombinant human IL-2 (Collaborative Biomedical Products, Bedford, Mass.). Day-10 T cell lymphoblasts were incubated with 125 ng/ml of the agonist anti-Fas monoclonal antibody CH-11 (the antibody was immobilized and 1×10^5 cells per well were used). In all experiments, control mouse monoclonal IgM antibody (TEPC-183, from Sigma) was used in equivalent concentrations. Cell death was determined at different time points, using a commercial MTS kit (Promega, Madison. Wis.). Microplate wells were read by ELISA plate reader at 490 nm.\nAdditionally, pre-incubating RA targets with pertussis toxin reversed their resistance to Fas-mediated and γδ T cell-mediated killing (FIGS. 5D and 5E). […] Cell death was determined using the commercial MTS kit (Promega, Madison, Wis.). […] At the end of incubation, targets were washed and susceptibility to γδ T cell killing was determined using a 4 hr ^51Cr-release assay."}}, "note": "Where a SMILES comes first, the peptide text is derived from it. The star is where a group is joined. Cbz = O=C(OCc1ccccc1)*; CH2F = FC*"}
{"compound": "COC(=O)C[C@H](NC(=O)[C@H](C)NC(=O)[C@@H](NC(=O)OCc1ccccc1)C(C)C)C(=O)CF", "note": "[Z-VAD-fmk, N-benzyloxycarbonyl-Val-Ala-Asp(O-methyl)-fluromethylketone] (Cbz-Val-Ala-Asp(OMe)-CH2F)", "values": [{"measurement": "subsequent cell death after Fas ligation", "setting": "[1]", "value": "blocks"}, {"measurement": "cleavage of PARP", "setting": "[1]; Western blot, FIG. 4A lower panel", "value": "blocks"}, {"measurement": "proteolytic processing of CPP32", "setting": "[1]; Western blot, FIG. 4A upper panel", "value": "blocks"}]}
{"compound": "CCCCCCCCCCCCCCC[C@H](O)[C@@H](N)CO", "note": "(racemic) [DHS, DL-threo-dihydrosphingosine]", "values": [{"measurement": "resistance of RA targets to apoptosis by anti-Fas antibodies", "setting": "[2]", "value": "effectively reversed"}, {"measurement": "resistance of RA targets to apoptosis by γδ T cells", "setting": "[3]; prior incubation of target cells (2.5 μM DMS), 4 hr 51Cr release, FIG. 5C", "value": "effectively reversed"}]}
{"compound": "COc1cccc(-c2cc(=O)c3ccccc3o2)c1N", "note": "[PD098059, 2-(2′-amino3′-methoxyphenyl-oxanaphthalen-4-one)]", "values": [{"measurement": "resistance to Fas-mediated cell killing", "setting": "[4]", "value": "reversed"}]}
{"compound": "pertussis toxin", "values": [{"measurement": "resistance of RA targets to γδ T cell-mediated killing", "setting": "[3]; preincubation 1 μg/ml for 1 hr, 4 hr 51Cr-release, FIG. 5E", "value": "reversed"}, {"measurement": "resistance of RA targets to Fas-mediated killing", "setting": "[5]", "value": "reversed"}]}
